In patent publication EP0078757A1, “Imines of 2-(4-phenyl-piperazinylethyl) anilines, process for their preparation and their use in medicine” (CORTIAL S.A., priority 1981, dated 1983):
Read-outs that look alike come from different tables or passages of the source.

Legend:
souris Swiss = experiment: Oral (intragastric) toxicity, mortality in mice; format: in vivo; conditions: mouse, solvent as in the source
Excerpt: La mortalité induite par ces substances a été déterminée chez la souris Swiss exempte d'organismes pathogènes spécifiques. Les animaux sont stabulés en salle climatisée 24 à 48 heures avant le début de l'expérimentation. Les substances sont administrées soit par voie intragastrique en solution dans de l'huile d'olive ou du tween, soit par voie intrapéritonéale en solution dans du tween. Les résultats sont exprimés dans les tableaux I et II par le pourcentage de mortalité en fonction de la dose administrée ou par la dose induisant 50 % de mortalité (DL 50) déterminée par la méthode de Bliss.

[1] = tested on: anaphylaxie passive cutanée; experiment: Passive cutaneous anaphylaxis test in rats; format: in vivo, rats mâles Sprague Dawley; conditions: for ED50: read-out: DE 50 voie po
Description: L'activité antiallergique a été déterminée dans le test de l'anaphylaxie passive cutanée de la façon suivante. On administre à des rats mâles Sprague Dawley par voie intradermique 0,1 ml de sérum riche en IgE. Ce sérum a été fabriqué en sensibilisant des rats Sprague-Dawley par une injection ip d'ovalbumine et de suspension de Bordetella pertusis suivie 20 j après par une nouvelle injection d'ovalbumine. 24 heures après administration du sérum on injecte par voie iv 0,5 ml d'une solution contenant 8,25 mg/kg d'ovalbumine et 26,4 mg/kg de bleu d'Evans dans un tampon pH 7,05. Au bout de 30 mn les animaux sont sacrifiés; chaque papule est découpée, pesée et mise à incuber pendant 4 j à 37°C dans 15 g de formamide. La quantité de bleu d'Evans contenue dans chaque papule est déterminée par la mesure de la densité optique du mélange. Le produit à tester est administré par voie orale ou intrapéritonéale en suspension homogène en présence de tween 80, 10 mn avant l'injection déclenchante. Son activité est appréciée par le pourcentage de diminution de la quantité de bleu d'Evans ayant diffusé dans la papule. Les DE 50 de certains produits de la présente invention sont indiquées dans le tableau V.

motilité chez la souris = experiment: Motility (actimeter) in mice, sedative effect; format: in vivo; conditions: ip route, mouse, Litchfield Wilcoxon method
Excerpt: L'effet des substances sur la motilité est appréciée chez la souris en utilisant un actimètre. Les animaux sont placés dans la cage d'activométrie et à partir du nombre de déplacements enregistrés par l'appareil,on obtient pour chaque dose considérée le pourcentage de l'effet observé par rapport au lot témoin. Ces pourcentages sont reportés sur un papier à l'échelle log-probit et la méthode de Litchfield Wilcoxon permet de calculer la dose efficace 50 sédative. Le tableau VI donne les DE 50 sédatives pour un certain nombre de produits faisant l'objet de l'invention.

[2] = oral route, rat, given 10 min before challenge, decrease of Evans blue in the papule, limits in brackets

## (((trifluorométhyl-3 phényl)-4 pipérazinyl)-2 éthyl)-6 N-pyridylidène-3 benzodioxol-1,3 yl-5 amine [COR 3415]
Souris Swiss; dose 500 mg/kg
  % de mortalité en fonction de la dose exprimée en mg/kg: 0%
Souris Swiss; dose 750 mg/kg
  % de mortalité en fonction de la dose exprimée en mg/kg: 50%
Souris Swiss; dose 1000 mg/kg
  % de mortalité en fonction de la dose exprimée en mg/kg: 60%
Souris Swiss; dose 2000 mg/kg
  % de mortalité en fonction de la dose exprimée en mg/kg: 70%
[1]; [2]
  DE 50 voie po: 20 mg/kg

## (phényl-4pipérazinyléthyl)-2 N-pyridylidène-3 aniline [COR 3412]
[1]; intraperitoneal route, rat, given 10 min before challenge, decrease of Evans blue in the papule, limits in brackets
  DE 50 voie ip: 7,52 (3,31 - 17,38) mg/kg
[1]; [2]
  DE 50 voie po: 11,9 (7,9 - 18,2) mg/kg
motilité chez la souris
  DE 50 sédation: 4 mg/kg

## CC(CN1c2ccccc2Sc2ccccc21)N(C)C (stereo not shown) [Prométhazine, reference compound]
[1]; [2]
  ED50: 2.9 mg/kg

## CN(C)CCCN1c2ccccc2Sc2ccc(Cl)cc21 [Chlorpromazine, reference compound]
[1]; Rattus norvegicus, po
  ED50: 4.9 mg/kg
